According to ChEMBL document CHEMBL1201862, “PubChem BioAssay data set” (2004):
Activity calls are given as the source filed them.

Experiments:
[1] = restored growth of temperature-sensitive Burl-1 yeast – whole organism, S. cerevisiae, Burl-1 ts mutant, luminescence, counter-screen for SUMOylation pathway inhibitor project, dose response (AID 463199); format: functional
Cytochrome P450 2C19 = Cytochrome P450 2C19 (Homo sapiens, UniProt P33261); assay: Cytochrome panel assay with activity outcomes. Panel member name: p450-cyp2c19 Compounds with AC50 equal or less than 10 uM are considered active; format: functional
Cytochrome P450 2D6 = Cytochrome P450 2D6 (Homo sapiens, UniProt P10635);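 further: CYP2D6 member of a cytochrome P450 panel assay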
Cytochrome P450 1A2 = biological target: T1, Cytochrome P450 1A2 (Homo sapiens, UniProt P05177);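 further: PubChem cytochrome P450 panel assay, CYP1A2 panel member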
T1 sequence (P05177 whole entry): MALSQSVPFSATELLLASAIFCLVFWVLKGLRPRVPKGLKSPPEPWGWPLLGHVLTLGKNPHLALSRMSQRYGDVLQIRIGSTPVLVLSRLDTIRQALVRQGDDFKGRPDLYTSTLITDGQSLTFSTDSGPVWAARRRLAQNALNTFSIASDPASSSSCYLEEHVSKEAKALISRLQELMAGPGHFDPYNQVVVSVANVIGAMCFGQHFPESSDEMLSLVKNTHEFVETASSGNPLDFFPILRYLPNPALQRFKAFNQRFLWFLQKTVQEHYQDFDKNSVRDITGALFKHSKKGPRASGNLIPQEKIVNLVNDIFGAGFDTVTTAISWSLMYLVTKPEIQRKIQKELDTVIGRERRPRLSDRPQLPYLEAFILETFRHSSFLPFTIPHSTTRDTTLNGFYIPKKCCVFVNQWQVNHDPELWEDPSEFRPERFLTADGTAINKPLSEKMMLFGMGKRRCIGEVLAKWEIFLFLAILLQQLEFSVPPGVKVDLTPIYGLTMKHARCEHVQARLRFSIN

Cytochrome P450 2D6, sequence (P10635 whole entry): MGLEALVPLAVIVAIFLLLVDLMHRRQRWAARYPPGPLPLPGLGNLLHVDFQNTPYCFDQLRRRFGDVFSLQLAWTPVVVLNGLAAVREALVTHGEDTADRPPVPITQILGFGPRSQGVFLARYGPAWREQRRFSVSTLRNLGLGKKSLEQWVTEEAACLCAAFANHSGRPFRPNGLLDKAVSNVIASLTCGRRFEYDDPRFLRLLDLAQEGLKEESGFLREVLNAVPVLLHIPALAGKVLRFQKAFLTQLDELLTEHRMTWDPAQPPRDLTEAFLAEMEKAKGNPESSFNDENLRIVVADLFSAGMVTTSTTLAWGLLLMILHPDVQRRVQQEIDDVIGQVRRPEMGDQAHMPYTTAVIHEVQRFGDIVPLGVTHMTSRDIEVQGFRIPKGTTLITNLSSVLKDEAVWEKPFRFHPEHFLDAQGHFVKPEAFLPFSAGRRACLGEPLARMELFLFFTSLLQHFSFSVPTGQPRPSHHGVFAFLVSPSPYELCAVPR
Cytochrome P450 2C19, sequence (P33261 whole entry): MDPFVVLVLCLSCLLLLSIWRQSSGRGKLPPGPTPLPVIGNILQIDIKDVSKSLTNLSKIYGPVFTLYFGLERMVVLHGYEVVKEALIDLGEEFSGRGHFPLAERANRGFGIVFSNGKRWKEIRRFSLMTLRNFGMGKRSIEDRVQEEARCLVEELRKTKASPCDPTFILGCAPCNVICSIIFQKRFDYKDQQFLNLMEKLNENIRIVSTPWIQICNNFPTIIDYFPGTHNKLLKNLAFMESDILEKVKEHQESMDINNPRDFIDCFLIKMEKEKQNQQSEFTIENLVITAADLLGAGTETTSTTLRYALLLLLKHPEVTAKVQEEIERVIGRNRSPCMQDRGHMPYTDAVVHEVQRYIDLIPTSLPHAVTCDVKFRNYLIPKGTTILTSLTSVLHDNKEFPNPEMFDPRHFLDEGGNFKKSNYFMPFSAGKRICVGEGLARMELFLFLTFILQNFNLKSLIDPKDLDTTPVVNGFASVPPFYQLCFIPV

For `CCOC(=O)c1c(CN2CCCCC2)n(C)c2cc(Br)c(O)c(CN(C)C)c12`, the AC50 [1] was 52.5 µM (active).

In the case of `CN(C)CCN(c1ccccn1)c1ccccn1`, the AC50 (Cytochrome P450 2C19) is reported as “inconclusive”, the AC50 (Cytochrome P450 2D6) is reported as 3.98 µM (inconclusive) and the AC50 (Cytochrome P450 1A2) is reported as “inconclusive”.
